In experiment [1] the test system is RS4; 11 leukaemia cell line. Nature of the experiment: In vitro cytotoxicity, Microculture Tetrazolium Assay (MTT). The experiment is classed as cell-based. The settings on record: Homo sapiens, 11 cells exposed for 48 hours. Here is the method: The cytotoxicity studies were carried out on the RS4; 11 leukaemia cell line and on H146 small Cell Lung Carcinoma cell line. The cells are distributed onto microplates and exposed to the test compounds for 48 hours. The cell viability is then quantified by a colorimetric assay, the Microculture Tetrazolium Assay (Cancer Res., 1987, 47, 939-942).

The target in experiment [2] is Bcl-2 protein (histag-Bcl-2, UniProtKB P10415) (Homo sapiens (Human), UniProt P10415). The experiment in a line: Inhibition of Bcl-2 by the fluorescence polarisation technique. The experiment is classed as binding. The following applies: fluorescence polarisation test; incubation for 2 hours; read-out: IC50 (nM) Bcl-2 FP. The source says:
For partial inhibitors, the percentage fluorescence polarisation inhibition for a given concentration of the test compound is indicated.
For orientation: Polarisation of emitted light reports the rotation of a fluorescent probe.

SMILES strings stand for the structures. Structures can show the parent of a compound that is named as a salt.

Bcl-2 protein, sequence (P10415 whole entry): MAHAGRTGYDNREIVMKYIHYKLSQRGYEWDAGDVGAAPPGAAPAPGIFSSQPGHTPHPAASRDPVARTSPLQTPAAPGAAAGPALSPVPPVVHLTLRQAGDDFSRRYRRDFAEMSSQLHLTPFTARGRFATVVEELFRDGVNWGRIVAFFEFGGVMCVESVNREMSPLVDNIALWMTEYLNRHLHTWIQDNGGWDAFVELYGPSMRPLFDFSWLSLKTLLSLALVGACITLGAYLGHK

Regarding `C[C@@H]1Cc2ccccc2CN1C(=O)c1cc2c(cc1-c1cc(C(=O)N(C)c3ccc(O)cc3)c3n1CCCC3)CN(C(=O)Cc1ccccc1)C2` [Example 14, N-(4-Hydroxyphenyl)-N-methyl-3-{6-[(3R)-3-methyl-1,2,3,4-tetrahydroisoquinoline-2-carbonyl]-2-(2-phenylacetyl)-2,3-dihydro-1H-isoindol-5-yl}-5,6,7,8-tetrahydroindolizine-1-carboxamide], the IC50 in experiment [1] was determined as 27 nM; in experiment [2], 7.9 nM.

In the case of `Cc1c(C(=O)N(C)c2ccc(O)cc2)cc(-c2cc3c(cc2C(=O)N2Cc4ccccc4C[C@H]2C)CN(C(=O)[C@@H](N)c2ccccc2)C3)n1C` [Example 173, 5-(2-[(2S)-2-Amino-2-phenylacetyl]-6-{[(3R)-3-methyl-3,4-dihydroisoquinolin-2(1H)-yl]carbonyl}-2,3-dihydro-1H-isoindol-5-yl)-N-(4-hydroxyphenyl)-N,1,2-trimethyl-1H-pyrrole-3-carboxamide], the values for the IC50 in experiment [1] and in experiment [2] were greater than 600 nM and 55 nM, respectively.

On to `Cc1c(C(=O)N(C)c2ccc(O)cc2)cc(-c2cc3c(cc2C(=O)N2Cc4ccccc4C[C@H]2C)CN(C(=O)OC2CCCCC2)CC3)n1C` [Example 790, Cyclohexyl 6-{4-[(4-hydroxyphenyl)(methyl)carbamoyl]-1,5-dimethyl-1H-pyrrol-2-yl}-7-[(3R)-3-methyl-1,2,3,4-tetrahydroisoquinoline-2-carbonyl]-1,2,3,4-tetrahydroisoquinoline-2-carboxylate], for which the IC50 in experiment [1] was 20 nM; in experiment [2], 3.4 nM.

Take `CC(Cc1ccc(Cl)cc1)C(=O)N1Cc2cc(C(=O)N3Cc4ccccc4C[C@H]3C)c(-c3cc(C(=O)N(C)c4ccc(O)cc4)c4n3CCCC4)cc2C1` (stereo partly drawn) [Example 24, 3-(2-{2-[(4-Chlorophenyl)methyl]propanoyl}-6-[(3R)-3-methyl-1,2,3,4-tetrahydroisoquinoline-2-carbonyl]-2,3-dihydro-1H-isoindol-5-yl)-N-(4-hydroxyphenyl)-N-methyl-5,6,7,8-tetrahydroindolizine-1-carboxamide]: the IC50 is greater than 150 nM in experiment [1] and 19 nM in experiment [2].

Consider `COc1ccc(CC(=O)N2Cc3cc(C(=O)N4Cc5ccccc5C[C@H]4C)c(-c4cc(C(=O)N(C)c5ccc(O)cc5)c5n4CCCC5)cc3C2)cc1` [Example 51, N-(4-Hydroxyphenyl)-3-{2-[2-(4-methoxyphenyl)acetyl]-6-[(3R)-3-methyl-1,2,3,4-tetrahydroisoquinoline-2-carbonyl]-2,3-dihydro-1H-isoindol-5-yl}-N-methyl-5,6,7,8-tetrahydroindolizine-1-carboxamide], for which the IC50 in experiment [1] turned out to be 23 nM; in experiment [2], 5.5 nM.

For `Cc1c(C(=O)N(C)c2ccccc2)cc(-c2cc3c(cc2C(=O)N2Cc4ccccc4C[C@H]2CN2CCOCC2)CN(C(=O)Oc2ccccc2)CC3)n1C` [Example 115, Phenyl 6-{1,5-dimethyl-4-[methyl(phenyl)carbamoyl]-1H-pyrrol-2-yl}-7-[(3S)-3-(morpholin-4-ylmethyl)-1,2,3,4-tetrahydroisoquinoline-2-carbonyl]-1,2,3,4-tetrahydroisoquinoline-2-carboxylate], the values for the IC50 in experiment [1] and in experiment [2] were 24 nM and 3.4 nM, respectively.

`Cc1c(C(=O)N(C)c2ccccc2)cc(-c2cc3c(cc2C(=O)N2Cc4ccccc4C[C@H]2C)CN(C(=O)Oc2ccc(C#N)cc2)CC3)n1C` [Example 786, 4-Cyanophenyl 6-{1,5-dimethyl-4-[methyl(phenyl)carbamoyl]-1H-pyrrol-2-yl}-7-[(3R)-3-methyl-1,2,3,4-tetrahydroisoquinoline-2-carbonyl]-1,2,3,4-tetrahydroisoquinoline-2-carboxylate]: the IC50 was determined as 24 nM in experiment [1] and 8.4 nM in experiment [2].

For `Cc1ccc(CC(=O)N2CCc3cc(-c4cc(C(=O)N(C)c5ccc(O)cc5)c5n4CCCC5)c(C(=O)N4Cc5ccccc5C[C@H]4C)cc3C2)cc1` [Example 54, N-(4-Hydroxyphenyl)-N-methyl-3-{7-[(3R)-3-methyl-1,2,3,4-tetrahydroisoquinoline-2-carbonyl]-2-[2-(4-methylphenyl)acetyl]-1,2,3,4-tetrahydroisoquinolin-6-yl}-5,6,7,8-tetrahydroindolizine-1-carboxamide], the IC50 in experiment [1] came out at 2.4 nM; in experiment [2] it was 4 nM.

Consider `CN(C(=O)c1cc(-c2cc3c(cc2C(=O)N2Cc4ccccc4C[C@H]2CN2CCOCC2)CN(C(=O)Oc2ccc(OC(F)(F)F)cc2)CC3)n2c1CCCC2)c1ccc(O)cc1` [Example 125, 4-(Trifluoromethoxy)phenyl 6-{1-[(4-hydroxyphenyl)(methyl)carbamoyl]-5,6,7,8-tetrahydroindolizin-3-yl}-7-[(3S)-3-(morpholin-4-ylmethyl)-1,2,3,4-tetrahydroisoquinoline-2-carbonyl]-1,2,3,4-tetrahydroisoquinoline-2-carboxylate], for which the IC50 in experiment [1] was 49 nM; in experiment [2] it was 8.7 nM.

For `COc1cccc(CCC(=O)N2CCc3cc(-c4cc(C(=O)N(C)c5ccc(O)cc5)c(C)n4C)c(C(=O)N4Cc5ccccc5C[C@H]4CN4CCOCC4)cc3C2)c1` [Example 135, N-(4-Hydroxyphenyl)-5-{2-[3-(3-methoxyphenyl)propanoyl]-7-[(3S)-3-(morpholin-4-ylmethyl)-1,2,3,4-tetrahydroisoquinoline-2-carbonyl]-1,2,3,4-tetrahydroisoquinolin-6-yl}-N,1,2-trimethyl-1H-pyrrole-3-carboxamide], the figures for the IC50 in experiment [1] and in experiment [2] were 99 nM and 8.4 nM, respectively.

As for `Cc1c(C(=O)N(C)c2ccc(O)cc2)cc(-c2cc3c(cc2C(=O)N2Cc4ccccc4C[C@H]2CN2CCN(C)CC2)CN(C(=O)Oc2ccccc2)CC3)n1C` [Example 214, Phenyl 6-{4-[(4-hydroxyphenyl)(methyl)carbamoyl]-1,5-dimethyl-1H-pyrrol-2-yl}-7-[(3S)-3-[(4-methylpiperazin-1-yl)methyl]-1,2,3,4-tetrahydroisoquinoline-2-carbonyl]-1,2,3,4-tetrahydroisoquinoline-2-carboxylate], the IC50 was 4.1 nM in experiment [1] and 2.7 nM in experiment [2].

Turning to `Cc1c(C(=O)N(C)c2ccc(O)cc2)cc(-c2cc3c(cc2C(=O)N2Cc4ccccc4C[C@H]2CN2CCOCC2)CN(C(=O)Oc2ccc(C#N)cc2)CC3)n1C` [Example 146, 4-Cyanophenyl 6-{4-[(4-hydroxyphenyl)(methyl)carbamoyl]-1,5-dimethyl-1H-pyrrol-2-yl}-7-[(3S)-3-(morpholin-4-ylmethyl)-1,2,3,4-tetrahydroisoquinoline-2-carbonyl]-1,2,3,4-tetrahydroisoquinoline-2-carboxylate], the results for the IC50 in experiment [1] and in experiment [2] were 6 nM and 2.8 nM, respectively.

With `CN(C(=O)c1cc(-c2cc3c(cc2C(=O)N2Cc4ccccc4C[C@H]2CN2CCOCC2)CN(S(=O)(=O)CCc2ccccc2)C3)n2c1CCCC2)c1ccc(O)cc1` [Example 21, N-(4-Hydroxyphenyl)-N-methyl-3-{6-[(3S)-3-(morpholin-4-ylmethyl)-1,2,3,4-tetrahydroisoquinoline-2-carbonyl]-2-(2-phenylethanesulfonyl)-2,3-dihydro-1H-isoindol-5-yl}-5,6,7,8-tetrahydroindolizine-1-carboxamide hydrochloride], the IC50 was 112 nM in experiment [1] and 14 nM in experiment [2].

Consider `C[C@@H]1Cc2ccccc2CN1C(=O)c1cc2c(cc1-c1cc(C(=O)N(c3ccccc3)c3ccc(O)cc3)c3n1CCCC3)CCN(C(=O)Cc1ccccc1)C2` [Example 134, N-(4-hydroxyphenyl)-3-{7-[(3R)-3-methyl-1,2,3,4-tetrahydroisoquinoline-2-carbonyl]-2-(2-phenylacetyl)-1,2,3,4-tetrahydroisoquinolin-6-yl}-N-phenyl-5,6,7,8-tetrahydroindolizine-1-carboxamide], for which the IC50 in experiment [1] was 2 nM; in experiment [2], 4.3 nM.

For the compound `CCCCN(CCCC)C(=O)c1cc(-c2cc3c(cc2C(=O)N2CCc4ccccc4C2)CN(C(=O)Cc2ccccc2)CC3)n(C)c1C` [Example 162, N,N-Dibutyl-1,2-dimethyl-5-[2-(2-phenylacetyl)-7-(1,2,3,4-tetrahydroisoquinoline-2-carbonyl)-1,2,3,4-tetrahydroisoquinolin-6-yl]-1H-pyrrole-3-carboxamide], the values for the concentration for half-maximal inhibition (IC50) in experiment [1] and in experiment [2] were greater than 150 nM and 33 nM, respectively.

For `C[C@@H]1Cc2ccccc2CN1C(=O)c1cc2c(cc1-c1cc(C(=O)N(C)c3ccc(O)cc3)c3n1CCCC3)CN(C(=O)NCc1ccccc1)C2` [Example 61, N-Benzyl-5-{1-[(4-hydroxyphenyl)(methyl)carbamoyl]-5,6,7,8-tetrahydroindolizin-3-yl}-6-[(3R)-3-methyl-1,2,3,4-tetrahydroisoquinoline-2-carbonyl]-2,3-dihydro-1H-isoindole-2-carboxamide], the IC50 is 85 nM in experiment [1] and 4.4 nM in experiment [2].

Regarding `C[C@@H]1Cc2ccccc2CN1C(=O)c1cc2c(cc1-c1cc(C(=O)N(C)c3ccc(O)cc3)c3n1CCCC3)CCN(C(=O)Cc1ccc(CN(C)C)cc1)C2` [Example 144, 3-[2-(2-{4-[(Dimethylamino)methyl]phenyl}acetyl)-7-[(3R)-3-methyl-1,2,3,4-tetrahydroisoquinoline-2-carbonyl]-1,2,3,4-tetrahydroisoquinolin-6-yl]-N-(4-hydroxyphenyl)-N-methyl-5,6,7,8-tetrahydroindolizine-1-carboxamide], the IC50 in experiment [1] is 82 nM; in experiment [2], 4.8 nM.

`C[C@@H]1Cc2ccccc2CN1C(=O)c1cc2c(cc1-c1cc(C(=O)N(C)c3ccc(O)cc3)c3n1CCCC3)CN(Cc1ccccn1)C2` [Example 28, N-(4-Hydroxyphenyl)-N-methyl-3-{6-[(3R)-3-methyl-1,2,3,4-tetrahydroisoquinoline-2-carbonyl]-2-(pyridin-2-ylmethyl)-2,3-dihydro-1H-isoindol-5-yl}-5,6,7,8-tetrahydroindolizine-1-carboxamide]: the IC50 in experiment [1] is greater than 150 nM; in experiment [2] it was 23 nM.

What is called IC50 is the point on the concentration scale where inhibition reaches its midpoint.

The values are drawn from patent US9809574B2, “Isoindoline or isoquinoline compounds, a process for their preparation and pharmaceutical compositions containing them” (LES LABORATOIRES SERVIER, priority 2013, dated 2017).
